The test concerns the target T1, acetylcholine muscarinic M1 receptor (Homo sapiens, UniProt P11229).
T1 construct: expressed in transfected cells; host or cells: CHOnfat cells (CHOnfat/hM1)
T1 sequence (P11229 1-460): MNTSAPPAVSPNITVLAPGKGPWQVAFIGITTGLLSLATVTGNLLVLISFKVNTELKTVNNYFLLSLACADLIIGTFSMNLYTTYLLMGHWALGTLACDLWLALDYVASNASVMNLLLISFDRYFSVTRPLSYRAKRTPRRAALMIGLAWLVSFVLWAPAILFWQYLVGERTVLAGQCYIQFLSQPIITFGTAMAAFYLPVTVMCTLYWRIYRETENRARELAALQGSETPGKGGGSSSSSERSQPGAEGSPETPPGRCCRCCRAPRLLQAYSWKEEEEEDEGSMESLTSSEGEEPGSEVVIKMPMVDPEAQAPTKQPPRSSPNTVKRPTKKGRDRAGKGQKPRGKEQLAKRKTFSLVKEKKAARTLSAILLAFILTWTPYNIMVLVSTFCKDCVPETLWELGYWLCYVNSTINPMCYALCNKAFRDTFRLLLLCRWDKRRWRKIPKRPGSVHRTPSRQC
Put plainly: FLIPR intracellular calcium assay for M1 receptor positive allosteric modulator activity. The format is cell-based. Conditions: inflection point from FLIPR values; CHOnfat/hM1 cells; 4 min preincubation, then EC20 acetylcholine (3 nM final); read-out: M1 IP Value. As for the experimental part: The assay studies the effect of one or several concentrations of test compounds on basal or acetylcholine-stimulated Ca^2+ levels using FLIPR.
Compounds are prepared and subjected to a preincubation period of 4 min. Thereafter, a single EC20 concentration of acetylcholine is added to each well (3 nM final). The intracellular Ca^2+ level of each sample is measured and compared to an acetylcholine control to determine any modulatory activity.
Cells: CHOnfat/hM1, hM2, hM3 or hM4 cells are plated 24 hr before the assay at a density of 18,000 cells/well (100 μL) in a 384 well plate. CHOnfat/hM1 and CHOnfat/hM3 Growth Medium: 90% DMEM (Hi Glucose); 10% HI FBS; 2 mM L-glutamine; 0.1 mM NEAA; Pen-Strep; and […] Geneticin, are added. For M2Gqi5CHOnfat and M4Gqi5CHOnfat cells, an additional 600 ug/ml hygromycin is added.
Equipment: 384 well plate, 120 μL addition plate; 96-well Whatman 2 ml Uniplate Incubator, 37° C., 5% CO2; Skatron EMBLA-384 Plate Washer; Multimek Pipetting System; Genesis Freedom 200 System; Mosquito System; Temo Nanolitre Pipetting System; and FLIPR^384 Fluorometric Imaging Plate Reader System are used.
Buffers. […]
After 60 min, the cells are washed three times with 100 μL of buffer, leaving 30 μL of buffer in each well. […] A signal test to check background fluorescence and basal fluorescence signal is performed. […]
(In general: Calcium flux is commonly read through the fluorescence of an indicator in the cells.)

On to `Cc1ccnc(C2(C#N)CCN(Cc3cc4c(=O)n(-c5ccccc5F)nc-4n4ccccc34)CC2)c1` [Example 1, 1-{[2-(2-Fluorophenyl)-3-oxo-2,3-dihydropyrazolo[4,3-c]quinolizin-5-yl]methyl}-4-(4-methylpyridin-2-yl)piperidine-4-carbonitrile], for which the EC50 is 175 nM. With `Cn1cc(N2CCN(Cc3cc4c(=O)n(-c5ccccc5F)nc-4n4ccccc34)CC2=O)cn1` [Example 2, 2-(2-Fluorophenyl)-5-{[4-(1-methyl-1H-pyrazol-4-yl)-3-oxopiperazin-1-yl]methyl}pyrazolo[4,3-c]quinolizin-3(2H)-one], the EC50 is 322 nM.

Values taken from patent US8507494B2, “Heterocyclic quinolizine derived M1 receptor positive allosteric modulators” (Merck Sharp & Dohme Corp., priority 2010, dated 2013).
